Drawing on patent US20080012929A1, “AZO DYE, HEAT-SENSITIVE TRANSFER RECORDING INK SHEET, HEAT-SENSITIVE TRANSFER RECORDING METHOD, COLOR TONER, INKJET INK AND COLOR FILTER” (FUJIFILM Corporation, priority 2006, published 2008), this text covers Solubility of dye and Light fastness for six molecules.

A short description of series [1]: Solubility of dye when preparing the ink sheet dye-providing layer-coating composition. The settings on record: methyl ethyl ketone/toluene (1/1), polyvinylbutyral resin. In kind it is physicochemical. More on the design: key: A: the dye easily dissolves; B: the dye dissolves; C: the dye is sparingly soluble, but dissolves. On the procedure:
A polyester film of 6.0 μm in thickness (trade name: Lumirror, manufactured by Toray Industries, Inc.), a back surface of which had been subjected to a heat resistant lubricating treatment with a 1 μm thick thermosetting acrylic resin, was used as a support. On the front surface of the film, the following dye-providing layer-coating composition was coated by a wire bar coating so that a dry thinness of the dye-providing layer became 1 μm. Thus, Ink sheet 1 was prepared.
Solubility of these dyes contained in these ink sheets were evaluated according to the following three grades: • A: the dye easily dissolves. • B: the dye dissolves. • C: the dye is sparingly soluble, but dissolves.

The nature of series [2]: Light stability (fastness to light) of the dye image under Xenon light irradiation. In kind it is physicochemical. The settings on record: residual ratio of Status A reflection density (initial 1.0) after Xenon light (17000 lux) for 7 days. The protocol:
Next, each of the thus-image-recorded heat-sensitive transfer image-receiving materials was subjected to irradiation with Xenon light (17000 lux) for 7 days, to examine light stability (fastness to light) of the dye image. Status A reflection densities after irradiation were measured in the portions indicating Status A reflection density of 1.0, and a stability of the image was evaluated in terms of a residual ratio (percentage) based on the reflection density before irradiation, according to the following three grades: • A: 80% or more, but 100% or less • B: 60% or more, but less than 80% • C: less than 60%

With `CCCCCn1nc(C(C)(C)C)c(N=Nc2ccc([N+](=O)[O-])cc2)c1N` [(5)], the Solubility of dye result in series [1] was “A”. In addition, in series [2], the Light fastness result is given as “A (80% or more, but 100% or less)”.
On to `CC(C)Cn1nc(C(C)(C)C)c(N=Nc2ccc([N+](=O)[O-])cc2)c1N` [(7)], for which, in series [1], the Solubility of dye result is reported as “A”. For the same molecule, in series [2], the Light fastness entry is on record as “A (80% or more, but 100% or less)”.
On to `CCC(C)n1nc(C(C)(C)C)c(N=Nc2ccc([N+](=O)[O-])cc2)c1N` (stereo not drawn) [(8)], for which, in series [1], the Solubility of dye result is listed as “A”. Besides, the Light fastness entry in series [2] is on record as “A (80% or more, but 100% or less)”.
Turning to `CC(C)CCn1nc(C(C)(C)C)c(N=Nc2ccc([N+](=O)[O-])cc2)c1N` [(9)], the Solubility of dye entry in series [1] is listed as “A”. In addition, in series [2], the Light fastness entry is listed as “A (80% or more, but 100% or less)”.
The corresponding values for `CCN(CCOc1ccc(C2CCCCC2)cc1)c1ccc(C=C(C#N)C#N)c(C)c1` [Dye for Comparison 2, reference compound] are “A” and “C (less than 60%)”.
`CCCCN(CCCC)C(=O)c1ccc2c(c1)C(=O)C(c1nc3ccc(C(C)C)cc3cc1O)C2=O` (stereo not drawn) [Dye for Comparison 3, reference compound]: the Solubility of dye result in series [1] is reported as “B”. In addition, the Light fastness entry in series [2] was “A (80% or more, but 100% or less)”.
